Results: patent US4874856A, “3-(substituted)propenyl-7-(aminothiazolylacetamido) ceph-3-em-4-carboxylic acids and esters thereof” (Bristol-Myers Company, priority 1987, dated 1989)
≈ marks a conversion by molar mass, not a printed value. Like-named read-outs stand apart in the source and are kept apart here.

Key:
Assay in all cases: In vitro MIC, Mueller-Hinton agar, inoculum 10^6 cells/ml
Format in all cases: cell-based
[1] = system: Enterobacter aerogenes; conditions: Klebsiella aerogenes
From the text: (§1) Table 6 is a comparison of the in vitro antibacterial activities of Compound 29 and the vinyl homolog thereof FK-482 against clinically important pathogens. Thirty-seven organisms were more than 4-fold more susceptible to Compound 29 than to FK-482. FK-482 has the following formula and is described by Takaya, et al. in U.S. Pat. No. 4,559,334 patented Dec. 17, 1985 (filed Oct. 20, 1983). [drawing 14]
(§2) *; Geometric mean of MIC (μg/ml)
(§3) Mueller-Hinton agar Inoculum size; 10^6 cells/ml

[2] = system: Serratia marcescens
From the text: as §1, §2, §3

[3] = system: Proteus vulgaris
From the text: as §1, §2, §3

[4] = system: Proteus mirabilis
From the text: as §1, §2, §3

[5] = system: Citrobacter freundii
From the text: as §1, §2, §3

[6] = system: Providencia rettgeri
From the text: as §1, §2, §3

[7] = system: Serratia species
From the text: as §1, §2, §3

[8] = system: Morganella morganii
From the text: as §1, §2, §3

[9] = system: Enterobacter cloacae
From the text: as §1, §2, §3

`C=CC1=C(C(=O)O)N2C(=O)[C@@H](NC(=O)/C(=N\O)c3csc(N)n3)[C@H]2SC1` [FK-482, reference compound] was tested, and the MIC ([1]; (GM) of the Enterobacter aerogenes strains, read-out: Geometric mean of MIC) was 9.8 µg/mL (≈ 24.8 µM), the MIC ([1]; strain A20940, read-out: MIC) was over 50 µg/mL and the MIC ([1]; strain A20941, read-out: MIC) was 6.3 µg/mL (≈ 15.9 µM). For the same molecule, the MIC ([1]; strain A20943, read-out: MIC) was 6.3 µg/mL (≈ 15.9 µM), the MIC ([1]; strain A20958, read-out: MIC) was 6.3 µg/mL (≈ 15.9 µM) and the MIC ([1]; strain A20961, read-out: MIC) was 12.5 µg/mL (≈ 31.6 µM). For the same molecule, the MIC ([1]; strain A20966, read-out: MIC) was 6.3 µg/mL (≈ 15.9 µM), the MIC ([1]; strain A20971, read-out: MIC) was 6.3 µg/mL (≈ 15.9 µM) and the MIC ([1]; strain A20985, read-out: MIC) was over 50 µg/mL. It also gave an MIC ([1]; strain A20994, read-out: MIC) of 25 µg/mL (≈ 63.2 µM), an MIC ([1]; strain A20996, read-out: MIC) of 3.1 µg/mL (≈ 7.84 µM) and an MIC ([1]; strain A21013, read-out: MIC) of 6.3 µg/mL (≈ 15.9 µM). It also gave an MIC ([1]; strain A21036, read-out: MIC) of 50 µg/mL (≈ 126 µM), an MIC ([1]; strain A21037, read-out: MIC) of 3.1 µg/mL (≈ 7.84 µM) and an MIC ([1]; strain A21038, read-out: MIC) of 1.6 µg/mL (≈ 4.05 µM). It also gave an MIC ([1]; strain A21039, read-out: MIC) of 6.3 µg/mL (≈ 15.9 µM), an MIC ([1]; strain A21043, read-out: MIC) of 25 µg/mL (≈ 63.2 µM) and an MIC ([1]; strain A21044, read-out: MIC) of 25 µg/mL (≈ 63.2 µM). It also gave an MIC ([1]; strain A21118, read-out: MIC) of over 50 µg/mL, an MIC ([1]; strain A21120, read-out: MIC) of 6.3 µg/mL (≈ 15.9 µM) and an MIC ([1]; strain A21130-1, read-out: MIC) of 6.3 µg/mL (≈ 15.9 µM). For the same molecule, the MIC ([1]; strain A21131, read-out: MIC) was 6.3 µg/mL (≈ 15.9 µM), the MIC ([1]; strain A21152, read-out: MIC) was 1.6 µg/mL (≈ 4.05 µM) and the MIC ([1]; strain A21155, read-out: MIC) was 6.3 µg/mL (≈ 15.9 µM). It also gave an MIC ([1]; strain A21158, read-out: MIC) of 6.3 µg/mL (≈ 15.9 µM), an MIC ([1]; strain A21503, read-out: MIC) of 6.3 µg/mL (≈ 15.9 µM) and an MIC ([2]; (GM) of the Serratia marcescens strains, read-out: Geometric mean of MIC) of 31 µg/mL (≈ 78.4 µM). For the same molecule, the MIC ([2]; strain A20019, read-out: MIC) was 12.5 µg/mL (≈ 31.6 µM), the MIC ([2]; strain A20222, read-out: MIC) was 25 µg/mL (≈ 63.2 µM) and the MIC ([2]; strain A20333, read-out: MIC) was over 50 µg/mL. The MIC ([2]; strain A20334, read-out: MIC) was over 50 µg/mL, the MIC ([2]; strain A20335, read-out: MIC) was 12.5 µg/mL (≈ 31.6 µM) and the MIC ([2]; strain A20336, read-out: MIC) was 12.5 µg/mL (≈ 31.6 µM). The MIC ([2]; strain A20442, read-out: MIC) was 3.1 µg/mL (≈ 7.84 µM), the MIC ([2]; strain A20459, read-out: MIC) was over 50 µg/mL and the MIC ([2]; strain A20460, read-out: MIC) was 50 µg/mL (≈ 126 µM). It also gave an MIC ([2]; strain A20461, read-out: MIC) of over 50 µg/mL, an MIC ([3]; (GM) of the Proteus vulgaris strains, read-out: Geometric mean of MIC) of 6.3 µg/mL (≈ 15.9 µM) and an MIC ([3]; strain A 9436, read-out: MIC) of 0.4 µg/mL (≈ 1.01 µM). The MIC ([3]; strain A 9526, read-out: MIC) was 25 µg/mL (≈ 63.2 µM), the MIC ([3]; strain A 9699, read-out: MIC) was 25 µg/mL (≈ 63.2 µM) and the MIC ([3]; strain AKH-26, read-out: MIC) was over 50 µg/mL. It also gave an MIC ([3]; strain HX-19 MS-1, read-out: MIC) of 0.8 µg/mL (≈ 2.02 µM), an MIC ([3]; strain OX-19 MS-1, read-out: MIC) of 3.1 µg/mL (≈ 7.84 µM) and an MIC ([4]; (GM) of the Proteus mirabilis strains, read-out: Geometric mean of MIC) of 0.14 µg/mL (≈ 0.354 µM). For the same molecule, the MIC ([4]; IFO3849, strain IFO 3849 MS-1, read-out: MIC) was 0.2 µg/mL (≈ 0.506 µM), the MIC ([4]; strain A 9554, read-out: MIC) was 0.2 µg/mL (≈ 0.506 µM) and the MIC ([4]; strain A 9702, read-out: MIC) was 0.1 µg/mL (≈ 0.253 µM). It also gave an MIC ([4]; strain A 9716, read-out: MIC) of 0.2 µg/mL (≈ 0.506 µM), an MIC ([4]; strain A20119, read-out: MIC) of 0.1 µg/mL (≈ 0.253 µM) and an MIC ([4]; strain A20342, read-out: MIC) of 0.2 µg/mL (≈ 0.506 µM). It also gave an MIC ([4]; strain A20454, read-out: MIC) of 0.1 µg/mL (≈ 0.253 µM), an MIC ([4]; strain A21222, read-out: MIC) of 0.1 µg/mL (≈ 0.253 µM) and an MIC ([5]; (GM) of the Citrobacter freundii strains, read-out: Geometric mean of MIC) of 4.1 µg/mL (≈ 10.4 µM). The MIC ([5]; strain A21312, read-out: MIC) was over 50 µg/mL, the MIC ([5]; strain A22140, read-out: MIC) was 3.1 µg/mL (≈ 7.84 µM) and the MIC ([5]; strain A22141, read-out: MIC) was 3.1 µg/mL (≈ 7.84 µM). It also gave an MIC ([5]; strain A22142, read-out: MIC) of 0.8 µg/mL (≈ 2.02 µM), an MIC ([5]; strain A22160, read-out: MIC) of 6.3 µg/mL (≈ 15.9 µM) and an MIC ([5]; strain A22161, read-out: MIC) of 0.8 µg/mL (≈ 2.02 µM). The MIC ([5]; strain A22166, read-out: MIC) was 3.1 µg/mL (≈ 7.84 µM), the MIC ([5]; strain A22175, read-out: MIC) was 0.8 µg/mL (≈ 2.02 µM) and the MIC ([5]; strain A22176, read-out: MIC) was 3.1 µg/mL (≈ 7.84 µM). It also gave an MIC ([5]; strain A22177, read-out: MIC) of 50 µg/mL (≈ 126 µM), an MIC ([6]; (GM) of the Providencia rettgeri strains, read-out: Geometric mean of MIC) of 0.07 µg/mL (≈ 0.177 µM) and an MIC ([6]; IFO3850, strain IFO 3850 MS-1, read-out: MIC) of 0.013 µg/mL (≈ 0.0329 µM). It also gave an MIC ([6]; strain A 9637, read-out: MIC) of under 0.0063 µg/mL, an MIC ([6]; strain A15167 (first line), read-out: MIC) of 0.013 µg/mL (≈ 0.0329 µM) and an MIC ([6]; strain A15167 (second line), read-out: MIC) of 0.1 µg/mL (≈ 0.253 µM). The MIC ([6]; strain A20645, read-out: MIC) was 6.3 µg/mL (≈ 15.9 µM), the MIC ([6]; strain A20915, read-out: MIC) was 3.1 µg/mL (≈ 7.84 µM) and the MIC ([6]; strain A20920, read-out: MIC) was 0.013 µg/mL (≈ 0.0329 µM). It also gave an MIC ([6]; strain A20921, read-out: MIC) of 0.025 µg/mL (≈ 0.0632 µM), an MIC ([6]; strain A21205, read-out: MIC) of 0.1 µg/mL (≈ 0.253 µM) and an MIC ([6]; strain A21270, read-out: MIC) of 0.1 µg/mL (≈ 0.253 µM). The MIC ([7]; (GM) of the Serratia species strains, read-out: Geometric mean of MIC) was over 50 µg/mL, the MIC ([7]; strain 6-330, read-out: MIC) was 25 µg/mL (≈ 63.2 µM) and the MIC ([7]; strain 6-427, read-out: MIC) was 25 µg/mL (≈ 63.2 µM). For the same molecule, the MIC ([7]; strain 6-920, read-out: MIC) was over 50 µg/mL, the MIC ([7]; strain 7-255, read-out: MIC) was over 50 µg/mL and the MIC ([7]; strain 7-454, read-out: MIC) was over 50 µg/mL. For the same molecule, the MIC ([7]; strain 7-2322, read-out: MIC) was over 50 µg/mL, the MIC ([7]; strain 8-185, read-out: MIC) was over 50 µg/mL and the MIC ([7]; strain 8-513, read-out: MIC) was over 50 µg/mL. For the same molecule, the MIC ([7]; strain 8-785, read-out: MIC) was over 50 µg/mL, the MIC ([7]; strain 8-1537, read-out: MIC) was over 50 µg/mL and the MIC ([7]; strain 9-50, read-out: MIC) was over 50 µg/mL. It also gave an MIC ([7]; strain 9-690, read-out: MIC) of over 50 µg/mL, an MIC ([8]; (GM) of the Morganella morganii strains, read-out: Geometric mean of MIC) of 25 µg/mL (≈ 63.2 µM) and an MIC ([8]; IFO3843, strain IFO 3843 MS-1, read-out: MIC) of 12.5 µg/mL (≈ 31.6 µM). It also gave an MIC ([8]; strain A 9636, read-out: MIC) of over 50 µg/mL, an MIC ([8]; strain A20455, read-out: MIC) of 12.5 µg/mL (≈ 31.6 µM) and an MIC ([9]; (GM) of the Enterobacter cloacae strains, read-out: Geometric mean of MIC) of 21 µg/mL (≈ 53.1 µM). The MIC ([9]; strain A 9655, read-out: MIC) was over 50 µg/mL, the MIC ([9]; strain A 9659, read-out: MIC) was over 50 µg/mL and the MIC ([9]; strain A20344, read-out: MIC) was over 50 µg/mL. The MIC ([9]; strain A20364, read-out: MIC) was 6.3 µg/mL (≈ 15.9 µM), the MIC ([9]; strain A20464, read-out: MIC) was 3.1 µg/mL (≈ 7.84 µM) and the MIC ([9]; strain A20650, read-out: MIC) was 0.8 µg/mL (≈ 2.02 µM). For the same molecule, the MIC ([9]; strain A22551, read-out: MIC) was over 50 µg/mL.
